Reference: patent US7999126B2, “Palladium(0)-dibenzylidene acetone complexes” (priority 2007, dated 2011)

Experiment: Solubility Test: CHCl3-insoluble residue of the product
Format: physicochemical
Details: 1.00 g product in 150 ml chloroform
Procedure: 1.00 g of the product are dissolved in 150 ml of chloroform and stirred at room temperature for 30 minutes. The solution is then aspirated through a membrane filter. The filter is washed with 30 ml of water and 30 ml of acetone and subsequently dried over night at 45° C. in vacuo.
1.00 g of the product were dissolved in 150 ml of chloroform and stirred for 30 minutes at room temperature. The solution was aspirated through a membrane filter. The filter was washed with 30 ml of water and 30 ml of acetone and subsequently dried over night at 45° C. in vacuo.
1.00 g of the product were dissolved in 150 ml of chloroform and stirred for 30 minutes at room temperature. The solution was aspirated through a membrane filter. The filter was washed with 30 ml of water and 30 ml of acetone, and the filter was subsequently dried over night at 45° C. in vacuo.

CHCl3-insoluble ingredients (room temperature): 0%
residue (Solubility Test) (stirred 30 minutes at room temperature, membrane filter, filter dried): 0%
SMILES: O=C(/C=C/c1ccccc1)/C=C/c1ccccc1.O=C(/C=C/c1ccccc1)/C=C/c1ccccc1.[Pd] [Experiment 1, Pd(dba)2]
